Where two headings read alike, the source gives them in different places.
Assays:
Drosophila OR47a = target: T1, Drosophila OR47a (Drosophila melanogaster, UniProt P81921); test: Calcium ion fluorescence (GCaMP6) assay, OR47a stable HEK293 cell line; format: cell-based; details: for Average response: OR47a cell line, mean of biological replicates; for DF norm AVERAGE OR47a: normalized fluorescence change, values below 0.05 threshold given as 0
T1 construct: expressed in transfected cells
T1 sequence (P81921 1-385): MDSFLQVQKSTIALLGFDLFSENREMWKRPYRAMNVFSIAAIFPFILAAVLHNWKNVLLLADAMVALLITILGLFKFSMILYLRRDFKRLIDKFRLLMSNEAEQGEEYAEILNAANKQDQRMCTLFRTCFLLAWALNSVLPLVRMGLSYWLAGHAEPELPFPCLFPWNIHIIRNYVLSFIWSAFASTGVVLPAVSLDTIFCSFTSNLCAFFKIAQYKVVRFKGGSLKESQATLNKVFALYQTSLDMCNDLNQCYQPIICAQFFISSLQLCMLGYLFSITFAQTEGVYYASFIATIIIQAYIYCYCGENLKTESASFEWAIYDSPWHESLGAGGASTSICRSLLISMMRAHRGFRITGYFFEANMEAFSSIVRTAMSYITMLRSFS
T1 sequence (Q9VNB5 1-486 partner): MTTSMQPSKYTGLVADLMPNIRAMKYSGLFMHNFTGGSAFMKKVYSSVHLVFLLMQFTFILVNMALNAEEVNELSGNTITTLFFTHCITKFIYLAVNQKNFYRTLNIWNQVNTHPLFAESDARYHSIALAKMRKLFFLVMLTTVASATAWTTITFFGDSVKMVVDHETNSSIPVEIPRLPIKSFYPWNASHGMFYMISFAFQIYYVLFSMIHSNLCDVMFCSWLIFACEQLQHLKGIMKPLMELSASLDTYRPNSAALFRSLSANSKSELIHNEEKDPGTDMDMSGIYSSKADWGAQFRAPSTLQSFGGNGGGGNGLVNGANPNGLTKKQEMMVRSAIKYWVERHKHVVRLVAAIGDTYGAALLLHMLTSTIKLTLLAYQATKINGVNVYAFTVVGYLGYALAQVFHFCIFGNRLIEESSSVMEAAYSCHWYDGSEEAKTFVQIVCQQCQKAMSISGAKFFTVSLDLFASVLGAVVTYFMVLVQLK
Experimental: (§1) These VUAA1 normalized ∆F values were used to compare the different receptors and ligands.
(§2) The concentration-dependent effect of the reference ligands on their cognate cell lines was examined in more detail. Twelve different ligand concentrations were measured on each cell line in an overall 0.01 μM to 100 μM concentration range with 5 repetitions with three technical replicates each time.
(§3) Twelve thousand to 18,000 cells were plated into each well of a black wall, transparent bottom 384-well microplate (Greiner) 48 h or 72 h before the measurements and were simultaneously treated with 1 μg/mL doxycycline. […] The plate has 24 columns, thus we could record responses in up to eight different cell lines in each plate. On the day of the experiment, the growth medium was replaced with 20 µL assay buffer/well (140 mM NaCl, 5 mM KCl, 2 mM CaCl2, 1 mM MgCl2, 5 mM HEPES-Na, 20 mM glucose, pH 7.3, 340 mOsm). […] Baseline fluorescence (F0) was recorded for 5 s, after which 7 µL VOC buffer (140 mM NaCl, 5 mM KCl, 2 mM CaCl2, 1 mM MgCl2, 5 mM HEPES-Na, 31 mM glucose, 0.1% DMSO, pH 7.3, 340 mOsm) was injected into each well in one row and the fluorescence response was recorded for an additional 30 s, at a rate of one read/sec. VOC solutions (VOC buffer with 4× concentration of the final measured VOC concentration, 9 µL/well was injected) were measured on the same wells in a second round with the same protocol. Each individual concentration of a specific VOC sample was recorded in three wells for the same cell line on the same microplate. The raw data were exported in xls file format, F0 and FMAX values, and the fluorescence intensity changes (∆F) were calculated in Excel (Microsoft) (Supplementary file Data summary.xlsx) using the following equation: ΔF=FMAX-F0/F0 (see also Fig. 1C). On each plate, we recorded the response of each cell line to 50 µM VUAA1. The average of these ∆F values of each cell line were used to calculate the VUAA1-normalized values for the rest of the plate, by dividing VOC response ∆F values by the average VUAA1 response ∆F value of the corresponding OR cell line. Each VOC-OR combination was measured three times as technical replicates. […] The average of these replicates were used as one ∆F and VUAA1-normalized ∆F in the following analysis.
(§4) In the next rows we tested the reference VOCs (or other VOCs known to activate the corresponding cell lines), in order to test if all cell lines are responsive. The remaining rows were used to test VOCs with unknown effect.
(§5) The recorded FMAX, F0, ∆F, VUAA1-normalized ∆F values, as well as the OR name, the name of the tested sample, and the final concentration for each well were copied into supplementary file Data summary.xlsx, that was used to summarize all the plates recorded. Here, the averages of the measurements were calculated for each receptor-VOC-concentration combination.

Drosophila OR71a = target: T2, Drosophila OR71a (Drosophila melanogaster, UniProt Q9VUK5); test: Calcium ion fluorescence (GCaMP6) assay, OR71a stable HEK293 cell line; format: cell-based; details: for activation at 1 µM / activation at 10 µM / activation at 100 µM: HEK293, read-out: OR71a response (VUAA1-normalized response); for Average response: OR71a cell line, VUAA1-normalized response, mean of biological replicates
T2 construct: expressed in transfected cells
T2 sequence (Q9VUK5 1-378): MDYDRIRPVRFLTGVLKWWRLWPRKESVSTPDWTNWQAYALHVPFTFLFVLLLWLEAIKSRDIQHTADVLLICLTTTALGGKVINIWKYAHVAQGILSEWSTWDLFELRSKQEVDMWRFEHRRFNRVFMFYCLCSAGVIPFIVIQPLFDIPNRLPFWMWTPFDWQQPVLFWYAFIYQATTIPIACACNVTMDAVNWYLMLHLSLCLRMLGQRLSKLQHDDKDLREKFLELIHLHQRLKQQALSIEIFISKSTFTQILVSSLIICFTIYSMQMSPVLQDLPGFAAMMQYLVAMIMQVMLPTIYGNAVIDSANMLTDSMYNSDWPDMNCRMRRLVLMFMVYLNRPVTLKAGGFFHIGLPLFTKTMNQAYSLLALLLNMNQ
T2 sequence (Q9VNB5 1-486 partner): T1 sequence (Q9VNB5 1-486 partner)
Experimental: as §1, §2, §3, §4, §5

[1] = HEK293, read-out: OR47a Average response (VUAA1-normalized)
[2] = HEK293, read-out: OR47a response (VUAA1-normalized response)
[3] = concentration 1, normalized fluorescence change, values below 0.05 threshold given as 0
[4] = concentration 10, normalized fluorescence change, values below 0.05 threshold given as 0
[5] = concentration 100, normalized fluorescence change, values below 0.05 threshold given as 0
[6] = ligand concentration 1 (unit not given), threshold 0.05, below shown as 0
[7] = ligand concentration 10 (unit not given), threshold 0.05, below shown as 0
[8] = ligand concentration 100 (unit not given), threshold 0.05, below shown as 0

C=CC(O)CCCCC (stereo not drawn) [1-octen-3-ol]
activation at 1 µM (Drosophila OR47a; [1]): 0% | activation at 10 µM (Drosophila OR47a; [1]): 3% | activation at 100 µM (Drosophila OR47a; [1]): 14% | activation at 1 µM (Drosophila OR47a; [2]): 0% | activation at 10 µM (Drosophila OR47a; [2]): 0% | activation at 100 µM (Drosophila OR47a; [2]): 14% | Average response (Drosophila OR47a; odorant cc. 1 µM): 0.00 | Average response (Drosophila OR47a; odorant cc. 10 µM): 0.0268 | Average response (Drosophila OR47a; odorant cc. 100 µM): 0.14 | DF norm AVERAGE OR47a (Drosophila OR47a; concentration 1): 0 | DF norm AVERAGE OR47a (Drosophila OR47a; concentration 10): 0 | DF norm AVERAGE OR47a (Drosophila OR47a; concentration 100): 0.1389 | activation at 1 µM (Drosophila OR71a): 0% | activation at 10 µM (Drosophila OR71a): 0% | activation at 100 µM (Drosophila OR71a): 5.55% | Average response (Drosophila OR71a; cc. 1 µM): 0.00 | Average response (Drosophila OR71a; cc. 10 µM): 0.0223 | Average response (Drosophila OR71a; cc. 100 µM): 0.0555 | DF norm AVERAGE OR71a (Drosophila OR71a; [3]): 0 | DF norm AVERAGE OR71a (Drosophila OR71a; [4]): 0 | DF norm AVERAGE OR71a (Drosophila OR71a; [5]): 0.05555

CCCCCO [1-pentanol]
activation at 1 µM (Drosophila OR47a; [2]): 0% | activation at 10 µM (Drosophila OR47a; [2]): 0% | activation at 100 µM (Drosophila OR47a; [2]): 0% | Average response (Drosophila OR47a; odorant cc. 1 µM): 0.00 | Average response (Drosophila OR47a; odorant cc. 10 µM): 0.00 | Average response (Drosophila OR47a; odorant cc. 100 µM): 0.00 | DF norm AVERAGE OR47a (Drosophila OR47a; concentration 1): 0 | DF norm AVERAGE OR47a (Drosophila OR47a; concentration 10): 0 | DF norm AVERAGE OR47a (Drosophila OR47a; concentration 100): 0 | activation at 1 µM (Drosophila OR71a): 0% | activation at 10 µM (Drosophila OR71a): 0% | activation at 100 µM (Drosophila OR71a): 0% | Average response (Drosophila OR71a; cc. 1 µM): 0.0261 | Average response (Drosophila OR71a; cc. 10 µM): 0.00 | Average response (Drosophila OR71a; cc. 100 µM): 0.00 | DF norm AVERAGE OR71a (Drosophila OR71a; [3]): 0 | DF norm AVERAGE OR71a (Drosophila OR71a; [4]): 0 | DF norm AVERAGE OR71a (Drosophila OR71a; [5]): 0

CCCCOC(C)=O [butyl acetate]
activation at 1 µM (Drosophila OR71a): 0% | activation at 10 µM (Drosophila OR71a): 0% | activation at 100 µM (Drosophila OR71a): 0% | Average response (Drosophila OR71a; cc. 1 µM): 0.00 | Average response (Drosophila OR71a; cc. 10 µM): 0.00 | Average response (Drosophila OR71a; cc. 100 µM): 0.0132 | DF norm AVERAGE OR71a (Drosophila OR71a; [6]): 0 | DF norm AVERAGE OR71a (Drosophila OR71a; [7]): 0 | DF norm AVERAGE OR71a (Drosophila OR71a; [8]): 0

CCCCOC(=O)CC [butyl propanoate]
activation at 1 µM (Drosophila OR71a): 0% | activation at 10 µM (Drosophila OR71a): 0% | activation at 100 µM (Drosophila OR71a): 0% | Average response (Drosophila OR71a; cc. 1 µM): 0.00 | Average response (Drosophila OR71a; cc. 10 µM): 0.00 | Average response (Drosophila OR71a; cc. 100 µM): 0.03 | DF norm AVERAGE OR71a (Drosophila OR71a; [6]): 0 | DF norm AVERAGE OR71a (Drosophila OR71a; [7]): 0 | DF norm AVERAGE OR71a (Drosophila OR71a; [8]): 0

Source: article PMC10709440, “High-throughput ligand profile characterization in novel cell lines expressing seven heterologous insect olfactory receptors for the detection of volatile plant biomarkers” (Scientific Reports, 2023)
